Among the test systems are ACHN; BT-549; CAKI-1; COLO 205; EKVX; HCC 2998; HCT-116; HOP-92; LOX IMVI; MDA-MB-231; Malme-3M; NCI-H226; NCI-H23; NCI-H522; NCI/ADR-RES; OVCAR-8; SF-539; SNB-75; T47D; UO-31.
Common to all, as to experiment: NCI tumour cell line growth inhibition, 48 h

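Results reflect a 48-hour exposure of cells in 96-well plates to compound at five concentrations. Here, GI50 denotes the concentration required for 50% inhibition of growth.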 Activity calls are given as the source filed them. Rule as the data show it: active = GI50 up to about 1.1 µM and inactive = higher.

On to `CC(C)C(C/C=C1\CC(CO)(COC(=O)C(C)(C)C)OC1=O)C(C)C` (stereo not given), for which the GI50 with ACHN is 11 µM (inactive); with BT-549 it was 11.5 µM (inactive); in the test with CAKI-1, 8.73 µM (inactive); in the test with COLO 205, 1.64 µM (inactive); in the test on EKVX, 11.1 µM (inactive); in the test on HCC 2998, 7.03 µM (inactive). Also, the GI50 in the test on HCT-116 was 10.5 µM (inactive); in the test with HOP-92, 10.3 µM (inactive); in the test on LOX IMVI, 2.88 µM (inactive); in the test on MDA-MB-231, 5.24 µM (inactive); in the test with Malme-3M, 10.7 µM (inactive); with NCI-H226, 5.12 µM (inactive). The GI50 with NCI-H23 is 4.9 µM (inactive); in the test with NCI-H522, 14.1 µM (inactive); in the test on NCI/ADR-RES, 13.6 µM (inactive); with OVCAR-8, 14.8 µM (inactive); in the test on SF-539 it was 7.93 µM (inactive); in the test with SNB-75 it was 1.84 µM (inactive). In addition, the results for the GI50 in the test on T47D and in the test with UO-31 were 15.1 µM (inactive) and 5.09 µM (inactive), respectively.

With `CCOC(=O)c1nc2ccccc2nc1NCc1cc(OC)c(OC)c(OC)c1`, the GI50 in the test with ACHN was 43.6 µM (inactive); in the test with BT-549 it was 34.8 µM (inactive); with CAKI-1, 70.6 µM (inactive); in the test with COLO 205, 38.2 µM (inactive); with EKVX it was 51.1 µM (inactive); with HCC 2998, 53.7 µM (inactive). Moreover, the GI50 with HCT-116 was 36.1 µM (inactive); in the test with HOP-92, 34.3 µM (inactive); with LOX IMVI, 47 µM (inactive); in the test on MDA-MB-231 it was 27.4 µM (inactive); with Malme-3M, 29.6 µM (inactive); with NCI-H226 it was 83 µM (inactive). The GI50 in the test on NCI-H23 was > 100 µM (inactive); in the test on NCI-H522 it was 33 µM (inactive); in the test with NCI/ADR-RES, 15.1 µM (inactive); with OVCAR-8 it was 58.1 µM (inactive); in the test on SF-539, > 100 µM (inactive); with SNB-75, 89.5 µM (inactive). The figures for the GI50 with T47D and with UO-31 were 35.5 µM (inactive) and 24.6 µM (inactive), respectively.

As to `Fc1ccc(N2C(=S)SC(=N\c3ccccc3)/C2=N/c2ccccc2)cc1`, the GI50 in the test with ACHN was > 74.5 µM (inactive); with BT-549, > 100 µM (inactive); with CAKI-1, > 100 µM (inactive); with COLO 205 it was > 100 µM (inactive); in the test with EKVX, 97.5 µM (inactive); with HCC 2998 it was > 100 µM (inactive). The GI50 in the test with HCT-116 was 17.5 µM (inactive); with HOP-92, > 42.8 µM (inactive); in the test on LOX IMVI, > 100 µM (inactive); in the test on MDA-MB-231, > 100 µM (inactive); in the test with Malme-3M it was > 42.9 µM (inactive); in the test on NCI-H226, > 100 µM (inactive). Moreover, the GI50 in the test with NCI-H23 is > 71.9 µM (inactive); in the test on NCI-H522 it was > 100 µM (inactive); in the test on NCI/ADR-RES it was > 92.7 µM (inactive); with OVCAR-8 it was > 100 µM (inactive); with SF-539, > 100 µM (inactive); in the test on SNB-75, > 100 µM (inactive). In addition, the GI50 is 25.5 µM (inactive) in the test with T47D and > 86.1 µM (inactive) in the test with UO-31.

Regarding `OCCN(CCO)CCn1cnc2c(NCc3ccccc3)ncnc21`, the GI50 in the test on ACHN, in the test with BT-549, in the test on CAKI-1, in the test with COLO 205, in the test with EKVX and in the test with HCC 2998 was > 100 µM (inactive) each time. Further, the GI50 with HCT-116, in the test with HOP-92, in the test with LOX IMVI, with MDA-MB-231, in the test with Malme-3M and with NCI-H226 was > 100 µM (inactive) throughout. Besides, the GI50 in the test on NCI-H23, in the test with NCI-H522, in the test on NCI/ADR-RES, in the test with OVCAR-8, in the test with SF-539 and with SNB-75 was > 100 µM (inactive) each time. Further, the GI50 with T47D and in the test on UO-31 was > 100 µM (inactive) in each case.

With `CCOC(=O)c1cc2c([N+](=O)[O-])c(N)ccc2s1`, the GI50 with ACHN is > 100 µM (inactive); with BT-549, > 100 µM (inactive); in the test on CAKI-1 it was > 100 µM (inactive); in the test with COLO 205 it was > 100 µM (inactive); in the test with EKVX, 57 µM (inactive); in the test with HCC 2998 it was > 100 µM (inactive). Further, the GI50 in the test on HCT-116, in the test with HOP-92, in the test with LOX IMVI, with MDA-MB-231, with Malme-3M and in the test on NCI-H226 was > 100 µM (inactive) each time. The GI50 in the test with NCI-H23 was > 100 µM (inactive); in the test on NCI-H522 it was > 100 µM (inactive); in the test on NCI/ADR-RES, > 100 µM (inactive); with OVCAR-8, > 100 µM (inactive); in the test with SF-539 it was > 100 µM (inactive); in the test with SNB-75, 72.3 µM (inactive). Further, the GI50 in the test on T47D and in the test on UO-31 was > 100 µM (inactive) throughout.

On to `CN(C)Cc1cc(/N=N/c2ccccc2)cc(CN(C)C)c1O`, for which the GI50 with ACHN was > 100 µM (inactive); with BT-549 it was > 100 µM (inactive); in the test on CAKI-1, > 100 µM (inactive); in the test with COLO 205, 20.5 µM (inactive); with EKVX, > 100 µM (inactive); in the test with HCC 2998 it was 79.1 µM (inactive). Further, the GI50 in the test with HCT-116 was 53.6 µM (inactive); in the test on HOP-92, 63.1 µM (inactive); in the test with LOX IMVI, 47.2 µM (inactive); with MDA-MB-231, 71 µM (inactive); in the test with Malme-3M, > 100 µM (inactive); in the test on NCI-H226, > 100 µM (inactive). The GI50 was > 100 µM (inactive) in the test on NCI-H23; > 100 µM (inactive) in the test with NCI-H522; 43 µM (inactive) in the test with NCI/ADR-RES; 57.1 µM (inactive) in the test with OVCAR-8; > 100 µM (inactive) in the test on SF-539; > 100 µM (inactive) with SNB-75. Besides, the GI50 with T47D was > 100 µM (inactive); with UO-31 it was 55 µM (inactive).

Turning to `COc1ccc(/C(CCl)=C(\Nc2ccccc2)c2ccc(OC)c(OC)c2)cc1OC`, the GI50 was 45.3 µM (inactive) in the test on ACHN; > 100 µM (inactive) in the test with BT-549; > 100 µM (inactive) with CAKI-1; > 100 µM (inactive) with COLO 205; > 100 µM (inactive) in the test with EKVX; > 100 µM (inactive) in the test on HCC 2998. For the same molecule, the GI50 with HCT-116 is 27.6 µM (inactive); with HOP-92, 55.1 µM (inactive); in the test on LOX IMVI, > 100 µM (inactive); in the test with MDA-MB-231 it was 93.1 µM (inactive); in the test on Malme-3M, > 100 µM (inactive); in the test on NCI-H226, 68.9 µM (inactive). The GI50 is 49.3 µM (inactive) in the test on NCI-H23; 94 µM (inactive) in the test with NCI-H522; > 100 µM (inactive) in the test with NCI/ADR-RES; > 100 µM (inactive) in the test on OVCAR-8; > 100 µM (inactive) in the test with SF-539; > 100 µM (inactive) in the test on SNB-75. For the same molecule, the GI50 is 27.7 µM (inactive) with T47D and 46.5 µM (inactive) in the test on UO-31.

Turning to `COc1cc2nc3n(c(=O)c2cc1OC)-c1ccc([N+](=O)[O-])cc1C3=O`, the GI50 in the test with ACHN is 39.2 µM (inactive); with BT-549 it was > 100 µM (inactive); with CAKI-1, 5.06 µM (inactive); in the test with COLO 205 it was > 100 µM (inactive); in the test on EKVX it was 36.9 µM (inactive); in the test on HCC 2998 it was > 100 µM (inactive). Also, the GI50 with HCT-116 is 34.8 µM (inactive); with HOP-92, > 100 µM (inactive); in the test on LOX IMVI, 38.7 µM (inactive); in the test on MDA-MB-231 it was 46 µM (inactive); in the test with Malme-3M, 34.5 µM (inactive); with NCI-H226 it was 26.1 µM (inactive). Besides, the GI50 was 56.6 µM (inactive) with NCI-H23; 25.5 µM (inactive) in the test on NCI-H522; 89.5 µM (inactive) in the test on NCI/ADR-RES; 57.9 µM (inactive) with OVCAR-8; > 100 µM (inactive) in the test on SF-539; 85.1 µM (inactive) in the test with SNB-75. For the same molecule, the GI50 in the test on T47D is 0.891 µM (active); in the test with UO-31, 11.8 µM (inactive).

Consider `C/C1=C\[C@H](C)C[C@H](C)OC(=O)[C@H](C)NC(=O)[C@@H](Cc2ccc(O)c(Br)c2)N(C)C(=O)[C@H](C)NC(=O)[C@@H](C)C1`, for which the GI50 in the test with ACHN was 0.0326 µM (active); in the test with BT-549 it was 0.132 µM (active); in the test with CAKI-1, 0.0149 µM (active); in the test with COLO 205 it was 0.00728 µM (active); in the test on EKVX it was 0.0652 µM (active); with HCC 2998, 0.00408 µM (active). Besides, the GI50 is 0.00382 µM (active) in the test on HCT-116; 0.0533 µM (active) with HOP-92; 0.00533 µM (active) in the test with LOX IMVI; 0.0211 µM (active) in the test with MDA-MB-231; 0.0708 µM (active) in the test with Malme-3M; 0.0505 µM (active) in the test on NCI-H226. Also, the GI50 in the test on NCI-H23 was 0.462 µM (active); in the test on NCI-H522, 0.0149 µM (active); with NCI/ADR-RES it was 0.126 µM (active); in the test on OVCAR-8, 0.147 µM (active); in the test with SF-539, 0.053 µM (active); with SNB-75, 0.0184 µM (active). Besides, the GI50 in the test with T47D was 0.282 µM (active); in the test with UO-31 it was 0.0538 µM (active).

With `C=C(CN(C)C)C(=O)c1ccc(OC)cc1`, the GI50 with ACHN is 1.12 µM (active); in the test on BT-549 it was 6.56 µM (inactive); in the test on CAKI-1, 1.5 µM (inactive); in the test on COLO 205, 0.326 µM (active); in the test on EKVX, 18.7 µM (inactive); with HCC 2998, 14.2 µM (inactive). Further, the GI50 with HCT-116 was 1.58 µM (inactive); in the test on HOP-92, 1.32 µM (inactive); with LOX IMVI, 4.49 µM (inactive); in the test on MDA-MB-231, 11.6 µM (inactive); with Malme-3M it was 1.48 µM (inactive); in the test with NCI-H226 it was 6.76 µM (inactive). Besides, the GI50 was 7.4 µM (inactive) with NCI-H23; 0.267 µM (active) with NCI-H522; 8.32 µM (inactive) in the test on NCI/ADR-RES; 1.07 µM (active) in the test on OVCAR-8; 4.1 µM (inactive) in the test on SF-539; 15.5 µM (inactive) with SNB-75. The GI50 in the test with T47D is 0.881 µM (active); in the test on UO-31, 2.55 µM (inactive).
